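Five compound concentrations were applied to cells in 96-well plates for 48 hours; endpoints were derived by simple linear interpolation of the resulting dose-response curve. The concentration for 50% growth inhibition is given as GI50.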 The source made the active and inactive calls. Rule as the data show it: active = GI50 up to about 1.1 µM and inactive = higher.
What was measured:
Experiment in all cases: NCI tumour cell line growth inhibition, 48 h
HL-60 = tested on: HL-60
U-251 = tested on: U-251
SK-MEL-28 = tested on: SK-MEL-28
HCT-15 = tested on: HCT-15
M14 = tested on: M14
A498 = tested on: A498
DMS-273 = tested on: DMS-273
SF-539 = tested on: SF-539
SK-MEL-5 = tested on: SK-MEL-5
OVCAR-4 = tested on: OVCAR-4
CAKI-1 = tested on: CAKI-1
HCC 2998 = tested on: HCC 2998
SK-OV-3 = tested on: SK-OV-3
LXFL 529 = tested on: LXFL 529
A549 = tested on: A549
OVCAR-3 = tested on: OVCAR-3
EKVX = tested on: EKVX
HOP-92 = tested on: HOP-92
Hs-578T = tested on: Hs-578T
MDA-N = tested on: MDA-N

SMILES	GI50 (HL-60)	GI50 (U-251)	GI50 (SK-MEL-28)	GI50 (HCT-15) [µM]	GI50 (M14)	GI50 (A498)	GI50 (DMS-273)	GI50 (SF-539)	GI50 (SK-MEL-5)	GI50 (OVCAR-4)	GI50 (CAKI-1)	GI50 (HCC 2998)	GI50 (SK-OV-3)	GI50 (LXFL 529)	GI50 (A549)	GI50 (OVCAR-3)	GI50 (EKVX)	GI50 (HOP-92)	GI50 (Hs-578T)	GI50 (MDA-N)
C1CCOC2(CCC3(CC2)OCCCCO3)OC1	> 100 µM (inactive)	> 100 µM (inactive)	> 100 µM (inactive)	> 100	> 100 µM (inactive)	> 100 µM (inactive)	> 100 µM (inactive)	> 100 µM (inactive)	> 100 µM (inactive)	> 100 µM (inactive)	> 100 µM (inactive)	> 100 µM (inactive)	> 100 µM (inactive)	> 100 µM (inactive)	> 100 µM (inactive)					
COC(=O)c1ccccc1N1C(=O)Cc2ccccc2C1=O		> 100 µM (inactive)	> 100 µM (inactive)	> 100			> 100 µM (inactive)	75.3 µM (inactive)	> 100 µM (inactive)			> 100 µM (inactive)	42.9 µM (inactive)	> 100 µM (inactive)	> 100 µM (inactive)	35.6 µM (inactive)	> 100 µM (inactive)			
CC(=O)O[C@]1(C)OC(=O)[C@@H](CC(C)C)N1[N+](=O)[O-]	> 100 µM (inactive)	> 100 µM (inactive)	> 100 µM (inactive)	> 100	> 100 µM (inactive)	> 100 µM (inactive)	> 100 µM (inactive)	> 100 µM (inactive)	> 100 µM (inactive)	> 100 µM (inactive)		> 100 µM (inactive)	> 100 µM (inactive)	> 100 µM (inactive)	> 100 µM (inactive)	> 100 µM (inactive)	> 100 µM (inactive)			
COc1cc(/C=C/C(=O)c2sc(Nc3ccccc3)nc2C)ccc1O	44.2 µM (inactive)	> 100 µM (inactive)	> 100 µM (inactive)	84.1		> 100 µM (inactive)	> 100 µM (inactive)	> 100 µM (inactive)	38.4 µM (inactive)		42.9 µM (inactive)	> 100 µM (inactive)	> 100 µM (inactive)		71.8 µM (inactive)	33.5 µM (inactive)	19.8 µM (inactive)	35.6 µM (inactive)		
COc1ccc(C2Cc3cc(OC)c(OC)c(OC)c3C2)cc1 (stereo not drawn)		73.5 µM (inactive)	31.2 µM (inactive)	38.6	35.6 µM (inactive)	28.6 µM (inactive)	36.8 µM (inactive)	64.7 µM (inactive)	16.3 µM (inactive)	59.6 µM (inactive)	36.9 µM (inactive)	49.9 µM (inactive)	> 100 µM (inactive)		22 µM (inactive)	38.8 µM (inactive)	29 µM (inactive)			
COc1cc(C(=O)C/C(CCC(=O)Nc2ccccc2[N+](=O)[O-])=N\NC(N)=O)ccc1O	> 100 µM (inactive)	> 100 µM (inactive)	> 100 µM (inactive)	> 100	> 100 µM (inactive)	> 100 µM (inactive)	> 100 µM (inactive)	> 100 µM (inactive)	> 100 µM (inactive)		> 100 µM (inactive)	> 100 µM (inactive)	> 100 µM (inactive)		> 100 µM (inactive)	> 100 µM (inactive)	32.9 µM (inactive)	> 100 µM (inactive)		
O=C(CCc1ccccc1)NS(=O)(=O)c1ccccc1	> 100 µM (inactive)	> 100 µM (inactive)	> 100 µM (inactive)		> 100 µM (inactive)	> 100 µM (inactive)		> 100 µM (inactive)		> 100 µM (inactive)	> 100 µM (inactive)	> 100 µM (inactive)	> 100 µM (inactive)	> 100 µM (inactive)	> 100 µM (inactive)	> 100 µM (inactive)	> 100 µM (inactive)	> 100 µM (inactive)		
CC1=CCCC2C1(C)CCC(C)C2(C)Cc1cc(O)ccc1O (stereo not drawn)	1.22 µM (inactive)	4.26 µM (inactive)	14.1 µM (inactive)	8.73	14.4 µM (inactive)	12.9 µM (inactive)	4.91 µM (inactive)	8.34 µM (inactive)	9.16 µM (inactive)	10.8 µM (inactive)	7.1 µM (inactive)	8.59 µM (inactive)	14.6 µM (inactive)		5.62 µM (inactive)	5.74 µM (inactive)	6.27 µM (inactive)	5.79 µM (inactive)	6.19 µM (inactive)	11.1 µM (inactive)
CCOC(=O)c1cc2nc3ccccc3c(=O)n2c2ccccc12	> 10 µM (inactive)	> 10 µM (inactive)	> 10 µM (inactive)	> 10	> 10 µM (inactive)	> 10 µM (inactive)		> 10 µM (inactive)	> 10 µM (inactive)	> 10 µM (inactive)	> 10 µM (inactive)	> 10 µM (inactive)	> 10 µM (inactive)		> 10 µM (inactive)	> 10 µM (inactive)	> 10 µM (inactive)	> 10 µM (inactive)	> 10 µM (inactive)	> 10 µM (inactive)
Nc1ccc(Cc2ccc(N)c(C(=O)O)c2)cc1C(=O)O	> 100 µM (inactive)	> 100 µM (inactive)	> 100 µM (inactive)	> 100	> 100 µM (inactive)	> 100 µM (inactive)		> 100 µM (inactive)	> 100 µM (inactive)	> 100 µM (inactive)	> 100 µM (inactive)	> 100 µM (inactive)	> 100 µM (inactive)		> 100 µM (inactive)	> 100 µM (inactive)	> 100 µM (inactive)	> 100 µM (inactive)	> 100 µM (inactive)	> 100 µM (inactive)
O=C(NO)c1ccc(C(=O)NO)cc1	42.7 µM (inactive)	1.25 µM (inactive)	> 100 µM (inactive)	> 100	97.9 µM (inactive)	> 100 µM (inactive)		> 100 µM (inactive)	81.7 µM (inactive)	> 100 µM (inactive)	> 100 µM (inactive)	9.86 µM (inactive)	12 µM (inactive)		> 100 µM (inactive)	32.4 µM (inactive)	> 100 µM (inactive)	82.2 µM (inactive)	> 100 µM (inactive)	> 100 µM (inactive)
COc1cc2c(cc1OC)CC(N=[N+]=[N-])c1cc(OC)c(OC)cc1/C=C\2 (stereo not drawn)	10 µM (inactive)	51.2 µM (inactive)	89.1 µM (inactive)	40.1	24.2 µM (inactive)	> 100 µM (inactive)		39.9 µM (inactive)	23.8 µM (inactive)	99.3 µM (inactive)	21 µM (inactive)	81.7 µM (inactive)	38.5 µM (inactive)		38.8 µM (inactive)	53.7 µM (inactive)	43.2 µM (inactive)	12.9 µM (inactive)	24 µM (inactive)	5.75 µM (inactive)
O=C(c1ccc(Cl)cc1)c1ccc(OCCCCCCCCCCOc2ccc(C(=O)c3ccc(Cl)cc3)cc2)cc1	> 100 µM (inactive)	> 100 µM (inactive)	> 100 µM (inactive)	> 100		> 100 µM (inactive)	> 100 µM (inactive)		> 100 µM (inactive)		> 100 µM (inactive)	> 100 µM (inactive)	> 100 µM (inactive)		> 100 µM (inactive)	> 100 µM (inactive)	> 100 µM (inactive)	> 100 µM (inactive)		
CC1(C)OC(=O)C(=C2CC(c3ccccc3)c3ccccc32)C(=O)O1 (stereo not drawn)	> 100 µM (inactive)	> 100 µM (inactive)	> 100 µM (inactive)	> 100	> 100 µM (inactive)	> 100 µM (inactive)		> 100 µM (inactive)	> 100 µM (inactive)	> 100 µM (inactive)	> 100 µM (inactive)	> 100 µM (inactive)	> 100 µM (inactive)	> 100 µM (inactive)	> 100 µM (inactive)	> 100 µM (inactive)	> 100 µM (inactive)	> 100 µM (inactive)		
CC1=C(C(=O)Nc2cc(F)c(F)cc2F)C(c2ccc3c(c2)OCO3)C(C(=O)Nc2cc(F)c(F)cc2F)=C(C)N1	13.8 µM (inactive)	27.2 µM (inactive)	33.2 µM (inactive)		24.2 µM (inactive)	21 µM (inactive)		27.5 µM (inactive)	19.4 µM (inactive)	19.6 µM (inactive)	11.8 µM (inactive)	19.2 µM (inactive)	19.4 µM (inactive)	23.2 µM (inactive)	22.6 µM (inactive)	15.7 µM (inactive)	18 µM (inactive)	2.72 µM (inactive)		
NC(Cc1c[nH]c2ccccc12)P(=O)(O)O (stereo not drawn)	> 100 µM (inactive)	> 100 µM (inactive)	> 100 µM (inactive)	> 100	> 100 µM (inactive)	> 100 µM (inactive)		> 100 µM (inactive)	> 100 µM (inactive)	> 100 µM (inactive)	> 100 µM (inactive)	> 100 µM (inactive)	> 100 µM (inactive)		> 100 µM (inactive)	> 100 µM (inactive)	> 100 µM (inactive)	> 10 µM (inactive)	> 100 µM (inactive)	> 100 µM (inactive)
CCOC(=O)CN1C(=O)c2c(c(C)n(-c3ccccc3)c2C)C1=O	> 100 µM (inactive)	73.5 µM (inactive)	> 100 µM (inactive)	> 100	> 100 µM (inactive)	> 100 µM (inactive)		91.2 µM (inactive)	> 100 µM (inactive)	> 100 µM (inactive)	> 100 µM (inactive)	> 100 µM (inactive)	> 100 µM (inactive)		> 100 µM (inactive)	> 100 µM (inactive)	> 100 µM (inactive)	> 100 µM (inactive)	> 100 µM (inactive)	> 100 µM (inactive)

Reference: ChEMBL document CHEMBL1201862, “PubChem BioAssay data set” (2004)
